In test [1] the test system is Haloperidol-Induced Catalepsy. The test can be described thus: Effect on Haloperidol-Induced Catalepsy. In kind it is in vivo, male ddY mice. Particulars: 10 mg/kg po. As to the method: Effect on Haloperidol-Induced Catalepsy Parkinson's disease is a clinical syndrome caused by degeneration of nigrostriatal dopaminergic neurons. […] The experiment was performed by using several groups of 5-weeks-old male ddY mice (weighing 22 to 24 g, Japan SLC), each group consisting of 5 mice. Haloperidol (Janssen Pharmaceutica) suspended in 0.3% CMC was intraperitoneally administered to each mouse at a dose of 1.0 mg/kg. Test compounds were suspended in injectable distilled water (Otsuka Pharmaceutical Co., Ltd.) containing Tween 80 [polyoxyethylene (20) sorbitan monooleate]. L-DOPA (Kyowa Hakko Kogyo Co., Ltd.) and benserazide hydrochloride (Kyowa Hakko Kogyo Co., Ltd.) were suspended in 0.3% CMC. One hour after the haloperidol administration, the test compound suspensions and the control suspension [injectable distilled water (Otsuka Pharmaceutical Co., Ltd.) containing Tween 80] containing no test compound were orally administered to separate groups of the mice (0.1 ml per 10 g of body weight). One hour after the administration of the test compound, the forelimbs of each mouse and subsequently the hindlimbs of the same mouse were placed on a 4.5 cm-high, 1.0 cm-wide bar and catalepsy was estimated. […] The catalepsy score and the standard of judgment are shown below. […] The effect of the compounds was evaluated by the total of the catalepsy scores of five mice in each group (25 points at the full).

Test [2] has as its system Clonidine-Induced Aggressive Behavior. The test can be described thus: Effect on Clonidine-Induced Aggressive Behavior. Particulars: 10 mg/kg po, clonidine 20 mg/kg ip. In kind it is in vivo, male ddY mice. As to the method: Effect on Clonidine-Induced Aggressive Behavior The effect of a test compound on the aggressive behavior induced by intraperitoneal administration of clonidine was investigated [Eur. J. Pharmacol., 29, 374 (1968)]. The experiment was performed by using several groups of male ddY mice (weighing 20 to 25 g, Japan SLC), each group consisting of two mice. The test compound was suspended in injectable distilled water (Otsuka Pharmaceutical Co., Ltd.) containing Tween 80. Clonidine hydrochloride (Sigma Co.) was dissolved in physiological saline solution (Otsuka Pharmaceutical Co., Ltd.). The test compound suspension and the control suspension [injectable distilled water (Otsuka Pharmaceutical Co., Ltd.) containing Tween 80] were orally administered to separate groups of the mice (0.1 ml per 10 g of body weight). Sixty minutes after the oral administration of the test compound, clonidine hydrochloride (20 mg/kg) was intraperitoneally injected. The number of biting attacks during 30 minutes after clonidine treatment was counted. The effect of the compound was evaluated by comparing the average number of biting attacks of the test compound-administered groups with that of control groups (Student's t-test).

Another test has as its target T1, adenosine A2 receptor (Rattus norvegicus, UniProt P30543).
T1 construct: Corpus striatum of a rat was suspended in ice-cooled 50 mM Tris; from tissue; host or cells: rat corpus striatum (washed membrane suspension)
Briefly: Adenosine A2 Receptor Binding Test (3H-CGS 21680, rat corpus striatum).

Where [3] appears, read: read-out: A2 Receptor Inhibition Rate.

pKi: −log10 of the molar value.

The source of these data is patent publication US5670498A, “8-substituted styryl xanthine derivatives” (Kyowa Hakko Kogyo Co., Ltd., priority 1992, dated 1997).

In general, pKi refers to −log10 of the Ki, conventionally taken in molar units. A lower pKi goes with a large Ki. In general, inhibition refers to the share of the control response that was lost under treatment.

T1 sequence (P30543 whole entry): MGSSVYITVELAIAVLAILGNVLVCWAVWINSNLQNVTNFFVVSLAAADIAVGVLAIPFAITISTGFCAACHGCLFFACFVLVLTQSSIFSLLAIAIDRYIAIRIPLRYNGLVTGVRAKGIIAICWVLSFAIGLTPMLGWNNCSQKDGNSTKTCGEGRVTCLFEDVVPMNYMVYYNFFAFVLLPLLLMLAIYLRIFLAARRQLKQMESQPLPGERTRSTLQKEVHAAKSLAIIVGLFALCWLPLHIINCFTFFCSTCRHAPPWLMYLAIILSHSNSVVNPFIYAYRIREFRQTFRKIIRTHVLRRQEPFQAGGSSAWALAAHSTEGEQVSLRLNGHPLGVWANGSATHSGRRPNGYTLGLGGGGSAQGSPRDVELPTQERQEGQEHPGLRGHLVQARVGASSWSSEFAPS
Procedure for adenosine A2 receptor: Adenosine Receptor Antagonistic Activity (Adenosine A2 Receptor Binding Test)
Corpus striatum of a rat was suspended in ice-cooled 50 mM Tris hydroxymethyl aminomethane hydrochloride (Tris HCl) buffer (pH 7.7) by using Polytron homogenizer (manufactured by Kinematicas Co.). The suspension was centrifuged (50,000×g, 10 minutes), and the precipitate was suspended again in the same amount of 50 mM Tris HCl buffer. The suspension was centrifuged under the same conditions, and the final precipitate was suspended once again in 50 mM Tris HCl buffer containing 10 mM magnesium chloride and 0.02 unit/mg tissue of adenosine deaminase (manufactured by Sigma Co.) to give a tissue concentration of 5 mg (wet weight)/ml.
To 1 ml of the tissue suspension thus prepared were added 50 μl of a mixture of N-ethylcarboxamidoadenosine labeled with tritium (^3 H-NECA: 26 Ci/mmol, manufactured by Amersham Co.) (final concentration: 3.8 nM) and cyclopentyladenosine (CPA, manufactured by Sigma Co.) (final concentration: 50 nM), and 50 μl of a test compound. The resulting mixture was allowed to stand at 25° C. for 120 minutes and then rapidly filtered by suction through a glass fiber filter (GF/C, manufactured by Whatman Co.). The filter was immediately washed three times with 5 ml each of ice-cooled 50 mM Tris HCl buffer, and transferred to a vial, and a scintillator (EX-H by Wako Pure Chemical Industries, Ltd.) was added thereto. The radioactivity on the filter was determined with a liquid scintillation counter (manufactured by Packard instrument Co.).
The similar procedure as above was repeated to determine the radioactivity bound to the A2 receptors using 50 μl of CGS 21680 labeled with tritium {^3 H-2-[p-(2-carboxyethyl)phenethylamino]-5'-(N-ethylcarboxamide)adenosine: 40 Ci/mmol, manufactured by New England Nuclear Co. [J. Pharmacol. Exp. Ther., 251, 888 (1989)]} (final concentration: 4.0 nM) in place of 50 μl of the mixture of N-ethylcarboxamidoadenosine labeled with tritium (^3 H-NECA: 26 Ci/mmol, manufactured by Amersham Co.) (final concentration: 3.8 nM) and cyclopentyladenosine (CPA, manufactured by Sigma Co.) (final concentration: 50 nM).
The inhibition rate of the test compound against the binding of A2 receptors (^3 H-CGS 21680 binding) was calculated by the following equation: [formula]
The Ki values shown in the table were calculated by the following equation: [formula]

In the case of `CCn1c(=O)c2c(nc(/C=C/c3cccc(C(C)=O)c3)n2C)n(CC)c1=O` [Compound 24, (E)-8-(3-Acetylstyryl)-1,3-diethyl-7-methylxanthine], in test [1] (sum of five mice, 25 points at the full, control 25), the “Total Score (catalepsy)” value was 7. Besides, in test [1] (Mus musculus, decrease in total score based on control group, read-out: Remission Rate), the inhibition in vivo at 10 mg/kg stood at 72%. The “Number of the Attacks of Test Compound-Treated Group/Number of the Attacks of Control Group” value in test [2] amounted to 5.3. Further, the “Number of the Biting Attacks (mean ± S.E.M.), Test Compound-Treated Group” value in test [2] (30 minutes, control 6.3 ± 2.09, p < 0.05) is listed as 33.1 ± 7.16. This compound also gave a pKi at adenosine A2 receptor ([3H]CGS 21680 (inhibition rates of the same line marked *)) of 7.89. Besides, on adenosine A2 receptor (setting [3]), the inhibition at 0.1 µM was found to be 85% and the inhibition at 1 µM was determined as 99%.
